Converted amounts (≈) assume the structure as drawn. Like-named read-outs stand apart in the source and are kept apart here. Blank lines part the entries; values can stand above or below the compound they belong to.
Columns and labels:
[1] = Risdiplam solubility data; format: physicochemical
[2] = Storage stability of crystalline Form H by IR spectrum; format: physicochemical
Experimental: In yet another aspect, the crystalline Form H of Risdiplam is characterized by the IR spectrum at 834 cm^−1, 880 cm^−1, 926 cm^−1, 1210 cm^−1, 1227 cm^−1, 1674 cm^−1, 2824 cm^−1, 3283 cm^−1; as illustrated in FIGS. 2A and 2B. The IR spectrum of Risdiplam Form H was conducted after 6 months of storage.
In yet another embodiment, the crystalline Form H of Risdiplam is characterized by the IR spectrum at 834 cm^−1, 880 cm^−1, 926 cm^−1, 1210 cm^−1, 1227 cm^−1, 1674 cm^−1, 2824 cm^−1, 3283 cm^−1 as illustrated in FIGS. 2A and 2B. The IR spectrum of Risdiplam Form H illustrated in FIG. 2B was conducted after 6 months of storage.

- solubility ([1]; ethanol, organic solvent or mixture, solvent: ethanol, read-out: Solubility in ethanol): 1300 µg/mL (≈ 3240 µM)
- solubility ([1]; water, solvent: water, read-out: Solubility in water): 3 µg/mL (≈ 7.47 µM)
Compound: Cc1cn2nc(-c3cc(=O)n4cc(N5CCNC6(CC6)C5)ccc4n3)cc(C)c2n1 [011/DS-C/V/118/032, 7-(4,7-Diazaspiro[2,5]octan-7-yl)-2-(2,8-dimethylimidazo[1,2-b]pyridazin-6-yl)-pyrido[1,2-a]pyrimidin-4-one]

- Solubility in ethanol ([1]; solvent: ethanol): <1000 µg/mL
- Solubility in water ([1]; solvent: water): <100 µg/mL
Compound: Cc1cn2nc(-c3cc(=O)n4cc(N5CCNC6(CC6)C5)ccc4n3)cc(C)c2n1 [STD]

- Solubility in ethanol ([1]; solvent: ethanol, listed as 011/DS-C/IV/118/048): 1400 µg/mL (≈ 3490 µM)
- Solubility in water ([1]; solvent: water, listed as 011/DS-C/IV/118/048): 6 µg/mL (≈ 14.9 µM)
- stability period ([2]; illustrated by IR spectrum in FIG. 2): stable up to a period of 6 months
Compound: Cc1cn2nc(-c3cc(=O)n4cc(N5CCNC6(CC6)C5)ccc4n3)cc(C)c2n1 [crystalline Form H of Risdiplam, 7-(4,7-diazaspiro[2.5]octan-7-yl)-2-(2,8-dimethylimidazo[1,2-b]pyridazin-6-yl)pyrido-4H-[1,2-a]pyrimidin-4-one]
- change in the IR spectrum after storage (stability) ([2]; after 6 months of storage, IR spectrum, FIG. 2A and 2B): No substantial change in the IR spectrum was observed
